In patent US8278452B2, “Heterocyclic compounds and compositions as c-kit and PDGFR kinase inhibitors” (IRM LLC, priority 2008, dated 2012):

Legend:
Human TG/HA-VSMC cells = test: Human TG/HA-VSMC proliferation assay (PDGF-BB, CellTiter-Glo); type: cell-based; settings: Biological data table, PDGF-BB stimulated
Method: Human TG/HA-VSMC Proliferation Assay
Human TG/HA-VSMC cells (ATCC) were resuspended in DMEM supplemented with 1% FBS and 30 ng/mL recombinant human PDGF-BB at 60,000 cells/mL. The cells were aliquoted into 384 well plates at 50 μL/well and incubated for 4 hours at 37° C. in a humidified incubator in the presence of 5% carbon dioxide. 0.5 μL of test compound diluted in DMSO was added to each well. The plates were returned to the incubator for a further 68 hours. 25 μL of CellTiter-Glo (Promega) was added to each well and the plates were incubated on the bench for 15 minutes. Luminescence was then read using a CLIPR CCD camera (Molecular Devices).

[1] = system: Mo7e cells which endogenously express c-kit; test: Mo7e assay: inhibition of SCF dependent proliferation (MTT); type: cell-based
Procedure, shortened: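 Mo7e cells stimulated with human recombinant SCF and exposed to two-fold serial compound dilutions from a top concentration of 10 μM. After 48 h at 37 °C, viability measured by MTT colorimetric assay; IC50 derived.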

[2] = Mo7e, Biological data table (selectivity c-kit over PDGFR)
[3] = Table 1, SCF stimulated Mo7e cells, 48 hours, MTT

SMILES	IC50 (Human TG/HA-VSMC cells) [nM]	IC50 [1, 2] [nM]	IC50 [1, 3] [nM]
Cc1cc2c(cn1)cc(-c1cc(Nc3nnc(-c4ccccc4)[nH]3)ccc1C)c(=O)n2C [Compound C6, 1,7-dimethyl-3-(2-methyl-5-(5-phenyl-4H-1,2,4-triazol-3-ylamino)phenyl)-1,6-naphthyridin-2(1H)-one]	3390	335	335
Cc1cc2c(cn1)cc(-c1cc(Nc3cc(-c4nccs4)on3)ccc1C)c(=O)n2C [Compound D9, 1,7-dimethyl-3-(2-methyl-5-(5-(thiazol-2-yl)isoxazol-3-ylamino)phenyl)-1,6-naphthyridin-2(1H)-one]	1070	141	141
Cc1cc2c(cn1)cc(-c1cc(Nc3noc(C4CC4)n3)ccc1C)c(=O)n2C [Compound A3, 3-(5-(5-cyclopropyl-1,2,4-oxadiazol-3-ylamino)-2-methylphenyl)-1,7-dimethyl-1,6-naphthyridin-2(1H)-one]	506	16	16
Cc1cc2c(cn1)cc(-c1cc(Nc3cc(-c4nccs4)no3)ccc1C)c(=O)n2C [Compound F1, 1,7-dimethyl-3-(2-methyl-5-(3-(thiazol-2-yl)isoxazol-5-ylamino)phenyl)-1,6-naphthyridin-2(1H)-one]	2140	111	111
COc1ccc(-c2nc(Nc3ccc(C)c(-c4cc5cnc(C)cc5n(C)c4=O)c3)no2)cc1 [Compound A14, 3-(5-{[5-(4-methoxyphenyl)-1,2,4-oxadiazol-3-yl]amino}-2-methylphenyl)-1,7-dimethyl-1,2-dihydro-1,6-naphthyridin-2-one]	1820	14	14
Cc1cc2c(cn1)cc(-c1cc(Nc3nc(-c4ccccn4)no3)ccc1C)c(=O)n2C [Compound E2, 1,7-dimethyl-3-(2-methyl-5-(3-(pyridin-2-yl)-1,2,4-oxadiazol-5-ylamino)phenyl)-1,6-naphthyridin-2(1H)-one]	2360	256	256
Cc1cc2c(cn1)cc(-c1cc(Nc3noc(-c4cccnc4)n3)ccc1C)c(=O)n2C [Compound A10, 1,7-dimethyl-3-(2-methyl-5-{[5-(pyridin-3-yl)-1,2,4-oxadiazol-3-yl]amino}phenyl)-1,2-dihydro-1,6-naphthyridin-2-one]			145
Cc1cc2c(cn1)cc(-c1cc(Nc3noc(-c4ccc(C#N)cc4F)n3)ccc1C)c(=O)n2C [Compound A63, 4-(3-{[3-(1,7-dimethyl-2-oxo-1,2-dihydro-1,6-naphthyridin-3-yl)-4-methylphenyl]amino}-1,2,4-oxadiazol-5-yl)-3-fluorobenzonitrile]			123
CC(=O)c1ccc(-c2nc(Nc3ccc(C)c(-c4cc5cnc(C)cc5n(C)c4=O)c3)no2)cc1 [Compound A95, 3-(5-{[5-(4-acetylphenyl)-1,2,4-oxadiazol-3-yl]amino}-2-methylphenyl)-1,7-dimethyl-1,2-dihydro-1,6-naphthyridin-2-one]			310
Cc1cc2c(cn1)cc(-c1cc(Nc3nnc(-c4ccc(Cl)cc4)[nH]3)ccc1C)c(=O)n2C [Compound C2, 3-(5-{[5-(4-chlorophenyl)-4H-1,2,4-triazol-3-yl]amino}-2-methylphenyl)-1,7-dimethyl-1,2-dihydro-1,6-naphthyridin-2-one]			256
Cc1cc2c(cn1)cc(-c1cc(Nc3noc(C(C)(C)CO)n3)ccc1C)c(=O)n2C [Compound A35, 3-(5-(5-(1-hydroxy-2-methylpropan-2-yl)-1,2,4-oxadiazol-3-ylamino)-2-methylphenyl)-1,7-dimethyl-1,6-naphthyridin-2(1H)-one]			181
Cc1ccc(Nc2noc(-c3ccccc3)n2)cc1-c1cc2c[n+]([O-])c(C)cc2n(C)c1=O [Compound A86, 1,7-dimethyl-3-{2-methyl-5-[(5-phenyl-1,2,4-oxadiazol-3-yl)amino]phenyl}-6-oxido-2-oxo-1,2-dihydro-1,6-naphthyridin-6-ium]			216
Cc1ccc(-c2nnc(Nc3ccc(C)c(-c4cc5cnc(C)cc5n(C)c4=O)c3)o2)cc1 [Compound B1, 1,7-dimethyl-3-(2-methyl-5-{[5-(4-methylphenyl)-1,3,4-oxadiazol-2-yl]amino}phenyl)-1,2-dihydro-1,6-naphthyridin-2-one]	2260	76	76
CCC(C)c1nc(Nc2ccc(C)c(-c3cc4cnc(C)cc4n(C)c3=O)c2)no1 (stereo not drawn) [Compound A29, 3-(5-{[5-(butan-2-yl)-1,2,4-oxadiazol-3-yl]amino}-2-methylphenyl)-1,7-dimethyl-1,2-dihydro-1,6-naphthyridin-2-one]			58
Cc1cc2c(cn1)cc(-c1cc(Nc3noc(-c4ccc(C#N)cc4)n3)ccc1C)c(=O)n2C [Compound A37, 4-(3-{[3-(1,7-dimethyl-2-oxo-1,2-dihydro-1,6-naphthyridin-3-yl)-4-methylphenyl]amino}-1,2,4-oxadiazol-5-yl)benzonitrile]			57
Cc1cc2c(cn1)cc(-c1cc(Nc3noc(C4CC(O)C4)n3)ccc1C)c(=O)n2C (stereo not drawn) [Compound A83, 3-(5-{[5-(3-hydroxycyclobutyl)-1,2,4-oxadiazol-3-yl]amino}-2-methylphenyl)-1,7-dimethyl-1,2-dihydro-1,6-naphthyridin-2-one]			251
